{
  "source": "paper PMC12446779",
  "about": "“Structural basis of transglucosylation in dextran dextrinase, a homolog of anomer-inverting GH15 glucoside hydrolases” (The Journal of Biological Chemistry, 2025)",
  "key": {"[1]": {"biological_target": "T1, Δ382C (DDase-Δ382C) (Gluconobacter oxydans, UniProt A0A0M5MSC0, E858A)", "T1 construct": "gene HKD20_12845; C-terminal truncation Met1-Ser902 (domains N1, N2, HLH, A); N-terminal His6 tag (MNHKVHHHHHHIEGRHMEL) kept; E. coli BL21-CodonPlus(DE3)-RIL; 921 residues with tag; dimer 195,604 Da", "T1 sequence (A0A0M5MSC0 entry or part of it E858A)": "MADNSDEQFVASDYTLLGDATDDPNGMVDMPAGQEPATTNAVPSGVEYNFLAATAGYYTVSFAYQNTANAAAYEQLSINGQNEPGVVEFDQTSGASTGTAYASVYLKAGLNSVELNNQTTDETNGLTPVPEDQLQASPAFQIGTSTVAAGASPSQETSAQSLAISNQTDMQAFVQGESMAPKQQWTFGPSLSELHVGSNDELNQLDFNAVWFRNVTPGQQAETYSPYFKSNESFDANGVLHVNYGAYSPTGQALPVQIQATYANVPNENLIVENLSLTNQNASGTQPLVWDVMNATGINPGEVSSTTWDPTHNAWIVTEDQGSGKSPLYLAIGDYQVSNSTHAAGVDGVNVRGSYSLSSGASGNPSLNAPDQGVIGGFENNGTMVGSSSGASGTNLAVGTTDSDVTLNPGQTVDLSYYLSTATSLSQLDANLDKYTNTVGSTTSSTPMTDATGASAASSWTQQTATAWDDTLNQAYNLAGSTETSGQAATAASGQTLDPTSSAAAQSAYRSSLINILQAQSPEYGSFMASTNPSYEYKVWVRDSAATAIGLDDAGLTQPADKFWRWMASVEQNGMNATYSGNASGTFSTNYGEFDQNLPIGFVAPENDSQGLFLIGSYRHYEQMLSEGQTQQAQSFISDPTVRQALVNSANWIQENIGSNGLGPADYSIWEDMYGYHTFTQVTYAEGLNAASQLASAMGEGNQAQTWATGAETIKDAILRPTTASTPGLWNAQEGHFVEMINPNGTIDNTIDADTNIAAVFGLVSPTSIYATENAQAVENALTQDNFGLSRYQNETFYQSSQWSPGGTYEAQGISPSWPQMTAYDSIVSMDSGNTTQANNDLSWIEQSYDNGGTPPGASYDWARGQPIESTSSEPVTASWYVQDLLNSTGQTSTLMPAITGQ", "assay": "glycosynthase reaction, isomaltotetraose formation by HPAEC-PAD", "assay_type": "biochemical", "conditions": "12.5 mM donor, 50 mM isomaltotriose acceptor, 130 mM sodium acetate pH 4.2, 35 °C"}, "[2]": {"biological_target": "T2, Δ382C (DDase-Δ382C) (Gluconobacter oxydans, UniProt A0A0M5MSC0, E858S)", "T2 construct": "gene HKD20_12845; C-terminal truncation Met1-Ser902 (domains N1, N2, HLH, A); N-terminal His6 tag (MNHKVHHHHHHIEGRHMEL) kept; E. coli BL21-CodonPlus(DE3)-RIL; 921 residues with tag; dimer 195,604 Da", "T2 sequence (A0A0M5MSC0 entry or part of it E858S)": "as the sequence (A0A0M5MSC0 entry or part of it E858A) above, with A858S counted along it", "assay": "glycosynthase reaction, isomaltotetraose formation by HPAEC-PAD", "assay_type": "biochemical", "conditions": "12.5 mM donor, 50 mM isomaltotriose acceptor, 130 mM sodium acetate pH 4.2, 35 °C"}},
  "data": [
    {"compound": "OC[C@H]1O[C@@H](F)[C@H](O)[C@@H](O)[C@@H]1O", "note": "[β-GF, β-D-glucosyl fluoride]", "values": [
      {"measurement": "glycosynthase reaction, isomaltotetraose formation by HPAEC-PAD", "setting": "[1]", "result": "isomaltotetraose (IG4) was produced from β-D-glucosyl fluoride (β-GF) and IG3 by E858A and E858S"},
      {"measurement": "glycosynthase reaction, isomaltotetraose formation by HPAEC-PAD", "setting": "[2]", "result": "isomaltotetraose (IG4) was produced from β-D-glucosyl fluoride (β-GF) and IG3 by E858A and E858S"}
    ]}
  ]
}
